Experimental data taken from ChEMBL document CHEMBL1201862, “PubChem BioAssay data set” (2004).
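Method: 48-hour compound exposure of cells in 96-well plates, five concentrations, linear interpolation of endpoints. Here, GI50 denotes the concentration required for 50% inhibition of growth.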 The source made the active and inactive calls. Rule as the data show it: active = GI50 up to about 1.1 µM and inactive = higher.

Legend:
Experiment in all cases: inhibition of tumour cell growth, NCI panel, 48 h
T47D = tested on: T47D
HCT-15 = tested on: HCT-15
SK-OV-3 = tested on: SK-OV-3
SF-295 = tested on: SF-295
UACC-257 = tested on: UACC-257
MDA-MB-231 = tested on: MDA-MB-231
SNB-19 = tested on: SNB-19
NCI-H522 = tested on: NCI-H522
CAKI-1 = tested on: CAKI-1
SW-620 = tested on: SW-620
A498 = tested on: A498
TK-10 = tested on: TK-10
LOX IMVI = tested on: LOX IMVI
HCT-116 = tested on: HCT-116
SNB-75 = tested on: SNB-75
UO-31 = tested on: UO-31
BT-549 = tested on: BT-549
A549 = tested on: A549
NCI-H23 = tested on: NCI-H23
786-0 = tested on: 786-0

Compound	GI50 (T47D)	GI50 (HCT-15) [µM]	GI50 (SK-OV-3)	GI50 (SF-295)	GI50 (UACC-257)	GI50 (MDA-MB-231)	GI50 (SNB-19)	GI50 (NCI-H522)	GI50 (CAKI-1)	GI50 (SW-620)	GI50 (A498)	GI50 (TK-10)	GI50 (LOX IMVI)	GI50 (HCT-116)	GI50 (SNB-75)	GI50 (UO-31)	GI50 (BT-549)	GI50 (A549)	GI50 (NCI-H23)	GI50 (786-0)
Nc1n[n+](CC(=O)c2ccccc2)c2sc(-c3ccccc3)nn12	> 100 µM (inactive)	75.2	> 100 µM (inactive)	64.7 µM (inactive)	> 100 µM (inactive)	> 100 µM (inactive)	> 100 µM (inactive)	95.5 µM (inactive)	> 100 µM (inactive)	36.8 µM (inactive)	> 100 µM (inactive)	> 100 µM (inactive)	54 µM (inactive)	44.2 µM (inactive)	> 100 µM (inactive)	79.3 µM (inactive)	> 100 µM (inactive)	> 100 µM (inactive)	> 100 µM (inactive)	> 100 µM (inactive)
COc1c2ccsc2c(OC)c2ccsc12	> 100 µM (inactive)	> 100	> 100 µM (inactive)	61.8 µM (inactive)	> 100 µM (inactive)	> 100 µM (inactive)	> 100 µM (inactive)	> 100 µM (inactive)	0.478 µM (active)	> 100 µM (inactive)	> 100 µM (inactive)	> 100 µM (inactive)	> 100 µM (inactive)	> 100 µM (inactive)	42.6 µM (inactive)	> 100 µM (inactive)	> 100 µM (inactive)	> 100 µM (inactive)	> 100 µM (inactive)	> 100 µM (inactive)
Nc1ccccc1.O=P(O)(O)c1ccccc1	> 100 µM (inactive)	> 100	> 100 µM (inactive)	> 100 µM (inactive)	> 100 µM (inactive)	> 100 µM (inactive)	> 100 µM (inactive)	> 100 µM (inactive)	> 100 µM (inactive)	> 100 µM (inactive)	> 100 µM (inactive)	> 100 µM (inactive)	> 100 µM (inactive)	> 100 µM (inactive)	17.6 µM (inactive)	> 100 µM (inactive)	> 100 µM (inactive)	> 100 µM (inactive)	> 100 µM (inactive)	> 100 µM (inactive)
O=C1Nc2ccccc2/C1=C1/Nc2ccccc2/C1=N/OCCOCCO	2.89 µM (inactive)	0.664	0.361 µM (active)	3.1 µM (inactive)	17.5 µM (inactive)	5.93 µM (inactive)	6.52 µM (inactive)	2.47 µM (inactive)	0.201 µM (active)	1.82 µM (inactive)	0.259 µM (active)	1.86 µM (inactive)	0.869 µM (active)	0.582 µM (active)	2.35 µM (inactive)	0.662 µM (active)	2.38 µM (inactive)	1.69 µM (inactive)	3.07 µM (inactive)	2.48 µM (inactive)
CCN(CC)CCC(=O)O[C@H]1CC[C@H](CC(C)[C@H]2CC(=O)C(C)C=C(C)[C@H](OC(=O)CCN(CC)CC)C(OC)C(=O)[C@@H](C)CC(C)/C=C/C=C/C=C(C)C(OC)CC3CC[C@H](C)[C@](O)(O3)C(=O)C(=O)N3CCCCC3C(=O)O2)CC1OC (stereo not given in full)	0.0144 µM (active)	0.137	0.0314 µM (active)	0.0218 µM (active)	1.32 µM (inactive)	0.228 µM (active)	0.0571 µM (active)	0.0276 µM (active)	0.108 µM (active)	0.266 µM (active)	0.0161 µM (active)	0.627 µM (active)	0.0222 µM (active)	0.865 µM (active)	0.0179 µM (active)	< 0.01 µM (active)	< 0.01 µM (active)	0.251 µM (active)	0.161 µM (active)	0.0197 µM (active)
CCCC(=O)Nc1cn(COC)c(C(=O)N2C[C@H]3C[C@@]34C2=CC(=O)c2[nH]cc(C)c24)n1	1.88 µM (inactive)	11.9	16.7 µM (inactive)	7.94 µM (inactive)	8.71 µM (inactive)	13.1 µM (inactive)	18.1 µM (inactive)	1.65 µM (inactive)	2.72 µM (inactive)	3.66 µM (inactive)	8.63 µM (inactive)	10.1 µM (inactive)	7.14 µM (inactive)	4.68 µM (inactive)	4.73 µM (inactive)	10.6 µM (inactive)	9.2 µM (inactive)	12.2 µM (inactive)	2.02 µM (inactive)	2.79 µM (inactive)
N#Cc1ccc(C(=O)/C=C/c2ccc(O)c(O)c2)cc1	16.3 µM (inactive)	15.5	21.9 µM (inactive)	17.7 µM (inactive)	16.2 µM (inactive)	15.6 µM (inactive)	15.8 µM (inactive)	1.53 µM (inactive)	15.3 µM (inactive)	13.2 µM (inactive)	17.7 µM (inactive)	14.1 µM (inactive)	11.5 µM (inactive)	10.5 µM (inactive)	17.4 µM (inactive)	12.4 µM (inactive)	12.6 µM (inactive)	15.3 µM (inactive)	16.9 µM (inactive)	> 38.4 µM (inactive)
CN(C)CCCN1c2ccccc2C(C)(C)c2ccccc21 [DIMETACRINE]	17.2 µM (inactive)	16.3	13.9 µM (inactive)	17.4 µM (inactive)	11.7 µM (inactive)	14.7 µM (inactive)	15.5 µM (inactive)	14.8 µM (inactive)	12.6 µM (inactive)	21.2 µM (inactive)	11 µM (inactive)	14.2 µM (inactive)	15.1 µM (inactive)	14.8 µM (inactive)	10.9 µM (inactive)	13.9 µM (inactive)	14.9 µM (inactive)	14.8 µM (inactive)	16.3 µM (inactive)	14.4 µM (inactive)
NCC1OC(n2cnc3c(N)ncnc32)CC1O (stereo not given)	> 100 µM (inactive)	> 100	> 100 µM (inactive)	> 100 µM (inactive)	> 100 µM (inactive)	> 100 µM (inactive)	> 100 µM (inactive)	> 100 µM (inactive)	> 100 µM (inactive)	> 100 µM (inactive)	> 100 µM (inactive)	> 100 µM (inactive)	> 100 µM (inactive)	> 100 µM (inactive)	> 100 µM (inactive)	> 100 µM (inactive)	> 100 µM (inactive)	> 100 µM (inactive)	> 100 µM (inactive)	> 100 µM (inactive)
N=C(N)NS(=O)(=O)c1ccc(NNc2c3ccccc3nc3c(C(=O)Nc4ccc(S(N)(=O)=O)cc4)cccc23)cc1	4.49 µM (inactive)	> 100	> 100 µM (inactive)	48.2 µM (inactive)	> 100 µM (inactive)	27.9 µM (inactive)	22.9 µM (inactive)	14.7 µM (inactive)	> 100 µM (inactive)	22.1 µM (inactive)	> 100 µM (inactive)	> 100 µM (inactive)	10.4 µM (inactive)	28.9 µM (inactive)	26.4 µM (inactive)	> 100 µM (inactive)	19.5 µM (inactive)	> 100 µM (inactive)	51.1 µM (inactive)	21.7 µM (inactive)
